Results from patent publication US9757334B2, “Surfactant-stripped micelle compositions with high cargo to surfactant ratio” (The Research Foundation for The State University of New York, priority 2014, dated 2017).

Test: Absorbance and peak shift of concentrated solutions
Assay type: physicochemical
Settings: 1000 OD/mL in 10 μm path length versus 1000 fold dilution
Procedure: Characterization of Nanonap Physical and Optical Properties: Size and zeta potential measurement were carried out using dynamic light scattering with a Nano ZS90 Zetasizer (Malvern Instruments). Transmission electron microscopy was performed using a JEM-2010 electron microscope to determine the morphology of an aqueous dispersion of nanonaps negatively stained with 1% uranyl acetate. Absorbance was measured by with a Lambda 35 UV/VIS spectrophotometer (Perkin Elmer) at room temperature using cuvettes with 1 cm path lengths, except for the high-concentrated spectral shifting analysis which used 10 μm path-length cuvettes.
1 Pc and 3 Nc dyes were identified that gave rise to nanonaps with peaks at 600, 707, 793 and 863 nm (FIG. 25a, b). The nanonaps generated absorption spanning the NIR spectrum while maintaining reasonably narrow full-width half-maxima (50-100 nm). Since PA imaging can resolve multiple absorption wavelengths, multi-wavelength classes of nanoparticles are desirable. The PA spectral response of nanonaps aligned with their absorption spectra (FIG. 35). The nanoparticles could be concentrated into fully soluble solutions with absorptions of greater than 1000. […] This was assessed by measuring absorption of a concentrated solution (1000 optical densities (OD)/mL) in a 10 μm path length, and then measuring a 1000 fold dilution of the same solution in a 1 cm path length. […]

absorption peak shift upon concentration: large absorption shifts
SMILES: CC1(C)C(/C=C/C=C/C=C/C=C2\N(CCCCS(=O)(=O)O)c3ccc4ccccc4c3C2(C)C)=[N+](CCCCS(=O)(=O)[O-])c2ccc3ccccc3c21 [indocyanine green]
